Test: mn = molality of the nth substance listed, in mol/kg
Conditions: 101 kPa, Liquid; for viscosity: Capillary tube (Ostwald / Ubbelohde) method; for mass density: Vibrating tube method

Cc1ncc(CO)c(CO)c1O.Cl [5-hydroxy-6-methyl-3,4-pyridinedimethanol hydrochloride] + O
Conditions	mass density, 288.15 K [kg/m3]	mass density, 298.15 K [kg/m3]	mass density, 308.15 K [kg/m3]	mass density, 318.15 K [kg/m3]	viscosity, 288.15 K [mPa·s]	viscosity, 298.15 K [mPa·s]	viscosity, 308.15 K [mPa·s]	viscosity, 318.15 K [mPa·s]
m1 = 0.0202	1000.32	998.28	995.25	991.43	1.145	0.8984	0.7266	0.6009
m1 = 0.0365	1001.26	999.22	996.18	992.35	1.151	0.9043	0.7312	0.6048
m1 = 0.0529	1002.19	1000.15	997.09	993.26	1.157	0.9103	0.7358	0.6087
m1 = 0.0695	1003.11	1001.07	997.99	994.16	1.163	0.9163	0.7404	0.6127
m1 = 0.0863	1003.98	1001.99	998.89	995.06	1.169	0.9224	0.7451	0.6168
m1 = 0.1032	1004.86	1002.9	999.78	995.96	1.175	0.9286	0.7498	0.6209
